The structures appear in SMILES notation. ≈ marks a conversion by molar mass, not a printed value.

This assay relates to HT-1080 cells. Briefly: Lethality of commercially available CIL41/70 structural analogs. It counts as cell-based. Conditions: Homo sapiens, tested once in technical triplicates. On the procedure: 1,000 cells per 36 μl were seeded in each well in 384-well plates. Lethal compounds were dissolved, and a twofold, 12-point dilution series was prepared in DMSO. Compound solutions were further diluted with media at 1:25, and 4 μl per well of the diluted solutions was added to cell cultures immediately after cells were seeded. […] When other cell-death-modulating compounds (100 nM sodium selenite, 1 μM cerivastatin, 100 μg/mL mevalonic acid) were used in cotreatments, they were supplemented to cell culture for 24 h before lethal compounds were added to cell culture, after which cells were further incubated for 24 h at 37° C. under 5% CO2. On the day of the viability measurement, we added 10 μl per well of 50% Alamar Blue diluted in media (Life Technologies) and further incubated the cells at 37° C. for 6 h. Fluorescence intensity (excitation/emission: 530/590) was measured with a Victor 3 plate reader (PerkinElmer), and the normalized viability was calculated as VL=(IL−I0)/(IV−I0), where VL, I0, IV, and IL are the normalized viability and the raw fluorescence intensities from the wells containing media, cells treated with a vehicle (negative control), and cells with the lethal compound (L), respectively. When the effect of a chemical modulator (M) on L was calculated, we instead used the equation VL|M=(IM,L−I0)/(IM,V−I0), where VL|M, IM,L and IM,V are the normalized viability, and fluorescence intensity from cells treated with […], respectively. The viability was typically measured in biological triplicate unless otherwise specified. A representative dose-response curve, the mean and standard error of normalized viability from one replicate were plotted. HT-1080 viability after modulator treatments corresponding to FIG. 3C and FIGS. 5E-5F is available in FIGS. 19A-19C.
Their lethality was tested once in HT-1080 cells in technical triplicates.
Consider `COc1ccccc1C/C(N)=N/OC(=O)COc1ccc(C)cc1Br` [CB22], for which the EC50 was above 20 µg/mL.
Then `Cc1ccc(OCC(=O)O/N=C(\N)Cc2cccs2)c(Br)c1` [CB23], with above 20 µg/mL; and `N/C(Cc1cccs1)=N\OC(=O)COc1ccccc1` [CB24], with above 20 µg/mL; and `Cc1ccc(OCC(=O)O/N=C(\N)Cc2ccc([N+](=O)[O-])cc2)c(Br)c1` [CB25], with above 20 µg/mL.
The figure for `COc1ccccc1C/C(N)=N/OC(=O)COc1cccc(C)c1` [CB26] is above 20 µg/mL.
The figure for `N/C(Cc1cccc2ccccc12)=N\OC(=O)COc1ccccc1` [CB27] is above 20 µg/mL.
On to `Cc1ccccc1OCC(=O)O/N=C(\N)Cc1ccc(Cl)cc1Cl` [CB28], for which the EC50 is above 20 µg/mL.
Take `COc1ccccc1C/C(N)=N/OC(=O)COc1ccc(C)cc1` [CB29]: the EC50 was above 20 µg/mL.
Then `N/C(Cc1cccs1)=N\OC(=O)COc1ccc(Br)cc1` [CB30], with above 20 µg/mL.
`COc1ccc(C/C(N)=N/OC(=O)COc2ccccc2C)cc1` [CB31] had an EC50 above 20 µg/mL.
Then `N/C(Cc1ccc(Cl)cc1Cl)=N\OC(=O)COc1ccccc1` [CB32], with above 20 µg/mL.
Molecule `COc1ccccc1C/C(N)=N/OC(=O)COc1ccccc1C` [CB33] had an EC50 above 20 µg/mL.
The figure for `Cc1cccc(OCC(=O)O/N=C(\N)Cc2ccc(Cl)cc2)c1` [CB34] is above 20 µg/mL; for `Cc1cccc(OCC(=O)O/N=C(\N)Cc2ccc(Cl)cc2Cl)c1` [CB35] it is above 20 µg/mL; for `COc1ccc(C/C(N)=N/OC(=O)COc2ccc(Br)c(C)c2)cc1OC` [CB36] it is above 20 µg/mL.
Then `COc1ccc(C/C(N)=N/OC(=O)COc2ccc(Br)c(C)c2)cc1` [CB37], with above 20 µg/mL; and `Cc1cc(OCC(=O)O/N=C(\N)Cc2cccs2)ccc1Br` [CB38], with above 20 µg/mL; and `Cc1cccc(OCC(=O)O/N=C(\N)Cc2ccc([N+](=O)[O-])cc2)c1` [CB39], with above 20 µg/mL.
Take `Cc1cccc(OCC(=O)O/N=C(\N)Cc2cccs2)c1` [CB40]: the EC50 was above 20 µg/mL.
Then `COc1ccccc1C/C(N)=N/OC(=O)COc1ccc(Br)cc1` [CB41], with above 20 µg/mL; and `N/C(Cc1ccc(Cl)cc1)=N\OC(=O)COc1ccc(Br)cc1` [CB42], with above 20 µg/mL.
The figure for `N/C(Cc1ccc([N+](=O)[O-])cc1)=N\OC(=O)COc1ccc(Br)cc1` [CB43] is above 20 µg/mL.
The figure for `Cc1cccc(OCC(=O)O/N=C(\N)Cc2cccc3ccccc23)c1` [CB44] is above 20 µg/mL; for `COc1ccccc1C/C(N)=N/OC(=O)COc1ccc(Br)c(C)c1` [CB45] it is above 20 µg/mL.
As for `Cc1ccccc1OCC(=O)O/N=C(\N)Cc1cccc2ccccc12` [CB46], the EC50 was above 20 µg/mL.
The figure for `COc1ccc(C/C(N)=N/OC(=O)COc2ccc(C)cc2Br)cc1` [CB47] is above 20 µg/mL.
Then `N/C(Cc1ccc(Cl)c(Cl)c1)=N\OC(=O)COc1ccccc1` [CB48], with above 20 µg/mL.
`COc1ccccc1C/C(N)=N/OC(=O)COc1cc(C)c(Cl)c(C)c1` [CB49]: a half-maximal effect (EC50) was put at 7.23 µg/mL (≈ 19.2 µM).
The figure for `Cc1cc(OCC(=O)O/N=C(\N)Cc2ccc([N+](=O)[O-])cc2)cc(C)c1Cl` [CB50] is above 20 µg/mL.
The figure for `COc1ccc(CC(=O)O/N=C(\N)Cc2ccc([N+](=O)[O-])cc2)cc1OC` [CB51] is above 20 µg/mL.
`COc1ccccc1C/C(N)=N/OC(=O)COc1ccc(Cl)cc1` [CB52] displayed an EC50 above 20 µg/mL.
The figure for `COc1ccc(C/C(N)=N/OC(=O)COc2ccc3ccccc3c2)cc1` [CB53] is above 20 µg/mL; for `COc1ccc(C[C@@H](N)NOC(=O)C(c2ccccc2)c2ccccc2)cc1OC` [CB54] it is above 20 µg/mL.
For the molecule `N/C(Cc1ccc(Cl)cc1)=N\OC(=O)CCc1ccccc1` [CB55], the EC50 is above 20 µg/mL.
The figure for `N/C(Cc1ccc([N+](=O)[O-])cc1)=N\OC(=O)C(c1ccccc1)c1ccccc1` [CB56] is 4.05 µg/mL (≈ 10.4 µM); for `N[C@H](Cc1ccc([N+](=O)[O-])cc1)NOC(=O)COc1ccc2ccccc2c1` [CB57] it is above 20 µg/mL; for `N/C(Cc1ccc(Cl)cc1)=N\OC(=O)C1CCCCC1` [CB58] it is 17.6 µg/mL (≈ 59.7 µM).
Then `COc1ccc(CC(=O)O/N=C(\N)Cc2ccc(Cl)cc2Cl)cc1OC` [CB59], with above 20 µg/mL; and `COc1ccc(C/C(N)=N/OC(=O)Cc2ccc(OC)c(OC)c2)cc1` [CB60], with above 20 µg/mL.
The molecule `COc1ccccc1C/C(N)=N/OC(=O)COc1ccc2ccccc2c1` [CB61] displayed an EC50 above 20 µg/mL.
Then `COc1ccccc1C/C(N)=N/OC(=O)/C=C/c1ccccc1` [CB62], with 8.63 µg/mL (≈ 27.8 µM); and `COc1ccc(C/C(N)=N/OC(=O)CCc2ccccc2)cc1` [CB63], with above 20 µg/mL; and `COc1ccc(CC(=O)O/N=C(\N)Cc2cccc3ccccc23)cc1OC` [CB64], with above 20 µg/mL.
The figure for `COc1ccc(C/C(N)=N/OC(=O)Cc2ccccc2)cc1OC` [CB65] is above 20 µg/mL; for `COc1ccc(C/C(N)=N/OC(C)=O)cc1OC` [CB66] it is above 20 µg/mL; for `N/C(Cc1ccc([N+](=O)[O-])cc1)=N\OC(=O)COc1ccccc1Cl` [CB67] it is above 20 µg/mL.
The figure for `N/C(Cc1cccs1)=N\OC(=O)COc1ccccc1Cl` [CB68] is above 20 µg/mL.
In turn, `N/C(Cc1cccs1)=N\OC(=O)C12CC3CC(CC(C3)C1)C2` [CB69] returned an EC50 of 2.09 µg/mL (≈ 6.56 µM).
With `Cc1cc(OCC(=O)O/N=C(\N)Cc2ccc([N+](=O)[O-])cc2)ccc1Cl` [CB71], the EC50 is above 20 µg/mL.
In the case of `COc1ccc(OCC(=O)O/N=C(\N)Cc2ccc(Cl)cc2Cl)cc1` [CB72], the EC50 was above 20 µg/mL.
`N/C(Cc1cccc2ccccc12)=N\OC(=O)COc1ccccc1Cl` [CB73] had a concentration for a half-maximal effect (EC50) above 20 µg/mL.
Then `COc1ccc(OCC(=O)O/N=C(\N)Cc2cccs2)cc1` [CB74], with above 20 µg/mL; and `N/C(Cc1cccs1)=N\OC(=O)COc1ccc(Cl)cc1Cl` [CB75], with above 20 µg/mL; and `N/C(Cc1ccc([N+](=O)[O-])cc1)=N\OC(=O)COc1ccc(Br)cc1Cl` [CB76], with above 20 µg/mL.
For `N/C(Cc1ccc([N+](=O)[O-])cc1)=N\OC(=O)CCCc1ccccc1` [CB77], the EC50 is above 20 µg/mL.
The figure for `N/C(Cc1cccs1)=N\OC(=O)COc1ccc(Br)cc1Cl` [CB78] is above 20 µg/mL.
For the molecule `CCc1ccc(OCC(=O)O/N=C(\N)Cc2ccc([N+](=O)[O-])cc2)cc1` [CB79], the EC50 was above 20 µg/mL.
Molecule `N/C(Cc1ccc([N+](=O)[O-])cc1)=N\OC(=O)Cc1ccccc1` [CB80] had an EC50 above 20 µg/mL.
The figure for `CCc1ccc(OCC(=O)O/N=C(\N)Cc2cccc3ccccc23)cc1` [CB81] is above 20 µg/mL; for `CC(Oc1ccc(Cl)cc1Cl)C(=O)O/N=C(\N)Cc1ccc([N+](=O)[O-])cc1` (stereo not drawn) [CB82] it is above 20 µg/mL; for `N/C(Cc1ccc([N+](=O)[O-])cc1)=N\OC(=O)CC1CCCCC1` [CB83] it is above 20 µg/mL.
`COc1ccc(CC(=O)O/N=C(\N)Cc2ccc(OC)cc2)cc1` [CB84] returned an EC50 above 20 µg/mL.
Then `N/C(Cc1cccc2ccccc12)=N\OC(=O)CC1CCCCC1` [CB85], with above 20 µg/mL; and `COc1ccc(CC(=O)C/N=C(\N)Cc2cccc3ccccc23)cc1` [CB86], with above 20 µg/mL.
The figure for `Cc1ccc(OCC(=O)O/N=C(\N)Cc2ccc(Cl)cc2Cl)cc1C` [CB87] is above 20 µg/mL.
The figure for `CC(C)c1ccc(OCC(=O)O/N=C(\N)Cc2ccc(Cl)cc2Cl)cc1` [CB88] is above 20 µg/mL; for `Cc1ccc(OCC(=O)O/N=C(\N)Cc2cccc3ccccc23)cc1C` [CB89] it is above 20 µg/mL; for `CC(C)c1ccc(OCC(=O)O/N=C(\N)Cc2cccc3ccccc23)cc1` [CB90] it is above 20 µg/mL.
With `COc1ccc(C/C(N)=N/OC(=O)COc2ccc(C)c(C)c2)cc1` [CB91], the EC50 is above 20 µg/mL.
Then `Cc1ccc(OCC(=O)O/N=C(\N)Cc2ccc([N+](=O)[O-])cc2)cc1C` [CB92], with above 20 µg/mL.
Molecule `CC(C)c1ccc(OCC(=O)O/N=C(\N)Cc2ccc([N+](=O)[O-])cc2)cc1` [CB93] showed an EC50 above 20 µg/mL.
The figure for `Cc1ccc(OCC(=O)ON[C@H](N)Cc2cccs2)cc1C` [CB94] is above 20 µg/mL; for `Cc1cc(OCC(=O)O/N=C(\N)Cc2ccc([N+](=O)[O-])cc2)cc(C)c1Br` [CB95] it is above 20 µg/mL.
For `N/C(Cc1ccc([N+](=O)[O-])cc1)=N\OC(=O)CCC1CCCCC1` [CB96], the EC50 was above 20 µg/mL.
Regarding `COc1ccccc1CC(=O)O/N=C(\N)Cc1ccc(Cl)cc1Cl` [CB97], the EC50 is above 20 µg/mL.
As to `CCC(C(=O)O/N=C(\N)Cc1ccc(Cl)cc1Cl)c1ccccc1` (stereo not drawn) [CB98], the EC50 was 4.46 µg/mL (≈ 12.2 µM).
Then `COc1ccccc1CC(=O)O/N=C(\N)Cc1ccc([N+](=O)[O-])cc1` [CB99], with above 20 µg/mL; and `N/C(Cc1ccc(Cl)cc1Cl)=N\OC(=O)Cc1cccs1` [CB100], with above 20 µg/mL.
The figure for `COc1ccccc1OCC(=O)O/N=C(\N)Cc1ccc(Cl)cc1Cl` [CB101] is above 20 µg/mL; for `Cc1cc(OCC(=O)O/N=C(\N)Cc2cccc3ccccc23)cc(C)c1Br` [CB102] it is above 20 µg/mL.
On to `N/C(Cc1ccc([N+](=O)[O-])cc1)=N\OC(=O)Cc1cccs1` [CB103], for which the EC50 was above 20 µg/mL.
The figure for `Cc1cc(Br)ccc1OCC(=O)O/N=C(\N)Cc1ccc([N+](=O)[O-])cc1` [CB104] is above 20 µg/mL; for `N/C(Cc1cccc2ccccc12)=N\OC(=O)CCC1CCCCC1` [CB105] it is above 20 µg/mL.
Then `Cc1cc(OCC(=O)O/N=C(\N)Cc2ccc(Cl)cc2Cl)cc(C)c1Br` [CB106], with above 20 µg/mL; and `Cc1cc(Br)ccc1OCC(=O)O/N=C(\N)Cc1cccc2ccccc12` [CB107], with above 20 µg/mL.
The figure for `COc1ccccc1CC(=O)O/N=C(\N)Cc1cccc2ccccc12` [CB108] is above 20 µg/mL; for `N/C(Cc1cccc2ccccc12)=N\OC(=O)Cc1cccs1` [CB109] it is above 20 µg/mL.
